Data: patent US20160176919A1, “CELL SPECIFIC LABELING OF NEWLY SYNTHESIZED PROTEINS” (OREGON HEALTH & SCIENCE UNIVERSITY, priority 2014, published 2016)
Blank lines part the entries; values can stand above or below the molecule they belong to.

Assays:
Hela cells = test: Identifying the nascent proteome in Hela cells using OP-puro (click chemistry with biotin azide, NeutrAvidin affinity purification, Western blot/silver stain, MS/MS); assay type: cell-based, human
Description: FIG. 3 is a set of two images of gels that show selective enrichment of newly synthesized proteins in Hela cells treated with OP-puro relative to those treated with puromycin. Hela cells were treated with either 50 μM OP-puro or puro (as indicated) for one hour. Cells were then harvested in PBS+1% SDS (sodium dodecyl sulfate) and lysed. Lysates were diluted in 0.1% SDS and incubated with biotin azide using a click reaction for one hour. Biotinylated proteins were affinity purified using NeutrAvidin agarose beads. Eluted proteins were resolved using a 4-12% gradient SDS-PAGE gel and detected by either Western blot with streptavidin-HRP (left gel) or by silver stain (right gel). The lanes reflect input (I), supernatant (S), or pull-down (P) as indicated.
OP-puro can identify newly synthesized proteins in a defined timeframe in mammalian cells grown in culture. Newly synthesized proteins were identified in Hela cells using OP-puro, followed by click chemistry, affinity purification, and MS/MS analysis. OP-puro was synthesized according to Liu et al, 2012 supra.
To prepare samples for MS/MS analysis, the captured biotinylated proteins from the OP-puro and puro (used as a background control) treated cells were alkylated and digested on the agarose beads using trypsin. The peptides were analyzed using a capillary HPLC system coupled online with an LTQ orbitrap mass spectrometer. […] These peptides identified 530 different human proteins, which represents ˜5% of the total Hela proteome (Nagaraj et al 2011 supra).

[1] = tested on: HEK 293T cells transfected with PGA-IRES-GFP; test: Cell-specific labeling of newly synthesized proteins in single HEK 293T cells (click chemistry with Alexa Fluor-568 azide, fluorescence microscopy); assay type: cell-based, human; details: 5 μM, 30 min
Description: FIG. 5A is a set of 12 images of HEK 293T cells transfected with PGA-IRES-GFP or controls as indicated using calcium phosphate transfection. In two of the conditions, PGA-IRES-GFP transfected cells were mixed with nontransfected cells such that the total population of transfected cells was 5%. At a timepoint 24 hours post transfection, cells were treated with either a DMSO control or 5 μM PhAc-OP-puro for 30 minutes as indicated. Cells were then fixed with methanol and nascent protein synthesis detected by click chemistry with Alexa Fluor-568 azide. After click chemistry, cells were labeled with an antibody specific for GFP. Total cells were detected by DAPI.
In cells treated with PhAc-OP-puro (5 μM, 30 min), labeling of newly synthesized proteins (OP-puro-tagged peptides) is detected in PGA-expressing cells (identified by GFP) (FIG. 5A). The amount of labeling appeared to correlate with the expression levels of PGA as determined by comparing the fluorescence intensity of the OP-puro tagged peptides to the fluorescence intensity of GFP.

[2] = tested on: HEK293T cells transfected with PGA-IRES-GFP or control plasmid; test: Deblocking of PhAc-OP-puro by PGA in HEK 293T cells transfected with PGA-IRES-GFP or control plasmid (biotin azide click, Streptavidin-HRP dot blot/Western blot); assay type: cell-based, human
Description: FIG. 4A is a dot blot and a bar graph showing HEK293T cells transfected with either a PGA IRES GFP or a control plasmid (as indicated) using calcium phosphate transfection. Twenty-four hours after transfection, cells were treated with 5 or 50 μM of DMSO (negative control), OP-puro, or PhAc-OP-puro as indicated for 30 minutes. Cells were harvested in PBS+1% SDS. Lysates were diluted 10× and incubated with biotin azide under click reaction conditions for one hour. Lysates were spotted onto nitrocellulose and biotinylated proteins detected with Streptavidin-HRP (top panel). Dot intensity was quantified using Image) and graphed (bottom panel).
FIG. 4B is a set of two images of gels showing proteins from three of the samples described in FIG. 4A resolved by 4-12% gradient SDS-PAGE and detected by Western blot with Streptavidin-HRP (left panel) or Ponceau S staining (right panel) Bands marked with an asterisk are endogenous cellular biotinylated proteins.
In E. coli, PGA is expressed as a precursor protein containing a signal sequence that targets it to the bacterial periplasm, where it is processed and activated (Kasche et al, Biochem Biophys Acta 1433, 76 (1999); incorporated by reference herein). Previous studies, however, have shown that by removing the signal sequence, PGA can be expressed in the cytoplasm of the methylotrophic yeast, Pichia pastoris (Maresova H et al, BMC Biotechnol 10, 7 (2010); incorporated by reference herein). Importantly, this cytoplasmic variant of PGA was as active as wild type (WT) PGA expressed in bacteria (Maresova H et al, 2010 supra). However, to date, no one had shown whether or not PGA could be expressed in mammalian cells or any cells derived from a multicellular organism. A construct (PGA-IRES-GFP) was the designed, the construct comprising a variant of PGA lacking the signal sequence described above, and an IRES-GFP for co-cistronic expression of GFP to identify transfected cells.
The incorporation of OP-puro into newly synthesized proteins was detected using click chemistry with biotin azide. […] (FIG. 4A).

[3] = Stability of PhAc-OP-puro in mouse plasma by LCMS; assay type: in vitro ADME; details: in vitro, for up to 40 min
Description: FIG. 6 is a plot of the results of incubating PhAc-OP-puro in mouse plasma for the indicated period of time. Stability of PhAc-OP-puro was monitored by liquid chromatography mass spectrometry.
As shown above, PhAc-OP-puro is stable in cell culture and is not converted to OP-puro in wild type cells. To use PhAc-OP-puro in an animal system such as mice, the in vitro stability of PhAc-OP-puro in plasma should be determined. Plasma typically contains high esterase activity that could result in cleavage of the carbamate linkage in PhAc-OP-puro. Cleavage of PhAc-OP-puro at the carbamate linkage would generate OP-puro, and therefore would not allow use of the disclosed method in intact mice. While there are several examples of drugs containing carbamates (Chaturvedi D, Tetrahedron 68, 15 (2012); incorporated by reference herein), it is unpredictable whether or not a particular carbamate is resistant to esterases in plasma.
The potential esterase-dependent metabolism of PhAc-OP-puro in mouse plasma was assessed by liquid chromatography mass spectrometry (LCMS). PhAc-OP-puro was determined to be stable in mouse plasma for up to 40 min (FIG. 6).

[4] = OP-puro treated Hela cells, puro as background control

Structure (SMILES): C#CCOc1ccc(C[C@H](N)C(=O)N[C@H]2[C@@H](O)[C@H](n3cnc4c(N(C)C)ncnc43)O[C@@H]2CO)cc1 [OP-puro, O-propargyl puromycin]
- biotinylated proteins in NeutrAvidin eluates (Western blot with streptavidin-HRP) (Hela cells; Hela cells, 50 μM, one hour): presence of biotinylated proteins
- fraction of the total Hela proteome represented by identified proteins (Hela cells; OP-puro treated Hela cells): ~5%
- different human proteins identified (Hela cells; [4]): 530
- peptides with unique amino acid sequences identified by MS/MS (Hela cells; [4]): 1,600

- induction of the unfolded protein response ([2]; PGA-IRES-GFP transfected HEK 293T cells, 5 μM, 30 min): no observed induction
- stability in mouse plasma [3]: stable
Structure (SMILES): C#CCOc1ccc(C[C@H](NC(=O)OCc2ccc(NC(=O)Cc3ccccc3)cc2)C(=O)NC2C(CO)OC(n3cnc4c(N(C)C)ncnc43)C2O)cc1 (stereo partly shown) [PhAc-OP-puro]
- labeling of newly synthesized proteins (OP-puro-tagged peptides) in PGA-expressing cells ([1]; PGA-expressing cells identified by GFP): detected
- labeling of newly synthesized proteins in cells not expressing PGA ([1]; cells not expressing PGA): No labeling was detected
- incorporation into newly synthesized proteins (biotin signal) ([2]; HEK 293T cells transfected with PGA-IRES-GFP, 5 μM, 30 min): prominent biotin signal
- time for complete conversion to OP-puro ([2]; PGA-IRES-GFP transfected HEK 293T cells, 5 μM): ≤ 30 min
- signal intensity relative to OP-puro control ([2]; PGA-IRES-GFP transfected HEK 293T cells, 5 μM, 30 min, versus control transfected cells with OP-puro 5 μM): the same as that of control transfected cells treated with OP-puro
- activity (labeling of proteins) in the absence of PGA ([2]; control transfected HEK 293T cells, up to 50 μM): completely inert

Structure (SMILES): COc1ccc(C[C@H](N)C(=O)N[C@H]2[C@@H](O)[C@H](n3cnc4c(N(C)C)ncnc43)O[C@@H]2CO)cc1 [puro, puromycin]
- silver stain of NeutrAvidin eluates (Hela cells; Hela cells, 50 μM, one hour): no detectable staining
